These results are taken from ChEMBL document CHEMBL1133494, “Inhibitors of bacterial tyrosyl tRNA synthetase: synthesis of four stereoisomeric analogues of the natural product SB-219383” (Bioorg Med Chem Lett, 2000).

In experiment [1] the test system is Tyrosyl-tRNA synthetase (Staphylococcus aureus). Description: Inhibitory activity of compound against tyrosyl tRNA synthetase from Staphylococcus aureus was determined up to 3 uM; IA means Inactive.
In experiment [2] the target is T1, Tyrosine--tRNA ligase, cytoplasmic (Homo sapiens) (UniProt P54577).
T1 sequence (whole entry): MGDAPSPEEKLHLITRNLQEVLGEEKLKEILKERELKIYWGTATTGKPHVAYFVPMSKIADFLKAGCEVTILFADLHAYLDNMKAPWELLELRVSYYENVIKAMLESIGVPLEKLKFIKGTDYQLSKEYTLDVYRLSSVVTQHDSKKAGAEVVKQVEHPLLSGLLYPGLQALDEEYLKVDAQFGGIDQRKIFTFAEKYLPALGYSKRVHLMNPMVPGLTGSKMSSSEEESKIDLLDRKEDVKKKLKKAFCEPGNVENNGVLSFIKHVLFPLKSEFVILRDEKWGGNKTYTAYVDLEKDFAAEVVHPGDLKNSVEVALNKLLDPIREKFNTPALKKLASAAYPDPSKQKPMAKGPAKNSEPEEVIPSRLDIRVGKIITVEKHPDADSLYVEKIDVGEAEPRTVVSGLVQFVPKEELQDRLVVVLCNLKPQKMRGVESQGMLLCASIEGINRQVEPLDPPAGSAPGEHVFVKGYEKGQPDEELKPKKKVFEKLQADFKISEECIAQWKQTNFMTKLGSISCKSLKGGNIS
Description: Percentage inhibitory activity of compound against tyrosyl tRNA synthetase from mammalian cells was determined at 3 uM.

As to `N[C@@H](Cc1ccc(O)cc1)C(=O)N[C@H](C(=O)O)[C@@H]1[C@@H](O)[C@H](O)[C@H](O)CN1O`, in experiment [1], the IC50 entry is given as “Not Active”.
Turning to `N[C@@H](Cc1ccc(O)cc1)C(=O)N[C@H](C(=O)O)[C@H]1[C@H](O)[C@@H](O)[C@@H](O)CN1O`, in experiment [2], the inhibition was determined as 11%.
Turning to `N[C@@H](Cc1ccc(O)cc1)C(=O)N[C@@H](C(=O)O)[C@@H]1[C@@H](O)[C@H](O)[C@H](O)CN1O`, the IC50 entry in experiment [1] is “Not Active”.

By inhibition is commonly meant the relative decrease from the control value, in per cent.
